Reference: the supplement of paper PMC10307832

Experiments:
Assay in all cases: relative viability (nuclei count vs DMSO), 5 days (fraction); higher = more cells survive
JZL-184 + Palbociclib = compound: C1CN(CCC1C(C2=CC3=C(C=C2)OCO3)(C4=CC5=C(C=C4)OCO5)O)C(=O)OC6=CC=C(C=C6)[N+](=O)[O-] [JZL-184] + CC(=O)c1c(C)c2cnc(Nc3ccc(N4CCNCC4)cn3)nc2n(C2CCCC2)c1=O [Palbociclib] (partner 0.5 µM)
Procedure, shortened: (§1)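 Dosing by pin tool came one day after lung cancer cell lines were seeded in 1536-well plates, using either one drug or a fixed anchor-drug dose plus five library-drug doses (not always all listed) in √10 steps. After 5 days, nuclei were counted on 4× images. Relative viability is treated-well nuclei count divided by vehicle-well nuclei count, and values are medians of duplicate plates.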

JZL-184 + Pemetrexed = compound: C1CN(CCC1C(C2=CC3=C(C=C2)OCO3)(C4=CC5=C(C=C4)OCO5)O)C(=O)OC6=CC=C(C=C6)[N+](=O)[O-] [JZL-184] + Nc1nc2[nH]cc(CCc3ccc(C(=O)N[C@@H](CCC(=O)O)C(=O)O)cc3)c2c(=O)[nH]1 [Pemetrexed] (partner 0.2 µM)
Procedure, shortened: as §1

JZL-184 + Foretinib = compound: C1CN(CCC1C(C2=CC3=C(C=C2)OCO3)(C4=CC5=C(C=C4)OCO5)O)C(=O)OC6=CC=C(C=C6)[N+](=O)[O-] [JZL-184] + COc1cc2c(Oc3ccc(NC(=O)C4(C(=O)Nc5ccc(F)cc5)CC4)cc3F)ccnc2cc1OCCCN1CCOCC1 [Foretinib] (partner 0.25 µM)
Procedure, shortened: as §1

JZL-184 + Decitabine = compound: C1CN(CCC1C(C2=CC3=C(C=C2)OCO3)(C4=CC5=C(C=C4)OCO5)O)C(=O)OC6=CC=C(C=C6)[N+](=O)[O-] [JZL-184] + Nc1ncn([C@H]2C[C@H](O)[C@@H](CO)O2)c(=O)n1 [Decitabine] (partner 2 µM)
Procedure, shortened: as §1

JZL-184 + Bortezomib = compound: C1CN(CCC1C(C2=CC3=C(C=C2)OCO3)(C4=CC5=C(C=C4)OCO5)O)C(=O)OC6=CC=C(C=C6)[N+](=O)[O-] [JZL-184] + CC(C)C[C@H](NC(=O)[C@H](Cc1ccccc1)NC(=O)c1cnccn1)B(O)O [Bortezomib] (partner 0.002 µM)
Procedure, shortened: as §1

Cell Line	relative viability (JZL-184 + Palbociclib; first compound 0.04 µM)	relative viability (JZL-184 + Palbociclib; first compound 0.4 µM)	relative viability (JZL-184 + Palbociclib; first compound 1.265 µM)	relative viability (JZL-184 + Palbociclib; first compound 4 µM)	relative viability (JZL-184 + Pemetrexed; first compound 0.04 µM)	relative viability (JZL-184 + Pemetrexed; first compound 0.4 µM)	relative viability (JZL-184 + Pemetrexed; first compound 1.265 µM)	relative viability (JZL-184 + Pemetrexed; first compound 4 µM)	relative viability (JZL-184 + Foretinib; first compound 0.04 µM)	relative viability (JZL-184 + Foretinib; first compound 0.4 µM)	relative viability (JZL-184 + Foretinib; first compound 1.265 µM)	relative viability (JZL-184 + Foretinib; first compound 4 µM)	relative viability (JZL-184 + Decitabine; first compound 0.04 µM)	relative viability (JZL-184 + Decitabine; first compound 0.4 µM)	relative viability (JZL-184 + Decitabine; first compound 1.265 µM)	relative viability (JZL-184 + Decitabine; first compound 4 µM)	relative viability (JZL-184 + Bortezomib; first compound 0.04 µM)	relative viability (JZL-184 + Bortezomib; first compound 0.4 µM)	relative viability (JZL-184 + Bortezomib; first compound 1.265 µM)	relative viability (JZL-184 + Bortezomib; first compound 4 µM)
201T	0.383	0.339	0.373	0.344	0.355	0.351	0.348	0.293	1.15	1.09	1.15	1.11	0.83	0.84	0.841	0.845	1.14	1.04	1.07	1.07
A549									1.23	0.942	1.06	0.976	0.278		0.26	0.273				
A-427	0.588	0.515	0.518	0.536	1.03	0.971	1.06	0.886	1.06	1.03	1.33	0.972	0.617	0.585	0.599	0.537	1.05	0.965	1	0.918
ABC-1	0.861	0.641	0.399	0.696					1.23	0.986	1.12	1.09	1.59	1.07	1.03	1.22	0.336	0.352	0.375	0.247
BEN	0.457	0.46	0.445	0.491	0.811	0.787	0.887	1.02	0.666	0.772	0.78	0.846	0.742	0.537	0.78	0.767	0.912	0.711	0.942	0.799
CAL-12T	0.692	0.314	0.508	0.576	1.4	0.997	1.22	1.08	1.22	1.07	1.07	1.2					1.15	0.942	1.18	1.08
COR-L23	0.337	0.234	0.287	0.273	0.195	0.191	0.179	0.192	0.978	0.881	1.01	0.902	0.474	0.414	0.412	0.397	1.2	0.915	0.979	0.91
COR-L 105	0.464	0.376	0.371	0.409	1.23	1.07	1.18	1.09	0.989	0.975	0.995	1.22	0.686	0.648	0.613	0.611	0.922	0.742	0.837	0.759
ChaGo-K-1	1	0.933	0.975	0.951	0.262	0.257	0.256	0.266	0.981	0.872	0.96	0.911	0.505	0.498	0.514	0.526	1.45	0.984	1.1	1.03
EKVX	0.436	0.331	0.323	0.371	0.364	0.326	0.352	0.403	0.677	0.752	0.925	0.755	0.354	0.412	0.396	0.363	1.12	0.905	1.04	0.967
EMC-BAC-2	0.584	0.458	0.508	0.512	0.452	0.423	0.454	0.473	1.09	0.957	1.09	0.947	1.02	0.946	0.958	0.944	1.2	1.02	1.16	1.07
EPLC-272H	0.331	0.314	0.326	0.297	0.316	0.22	0.351	0.319	0.773	0.668	0.907	0.712	0.356	0.386	0.396	0.384	1.03	0.735	1.06	0.839
H3255	0.353	0.322	0.343	0.323	0.632	0.49	0.522	0.553	0.832	0.684	0.95	0.987	0.648	0.63	0.59	0.646	0.954	0.708	1.01	0.75
HARA	0.25	0.204	0.273	0.238	0.289		0.268	0.254	1.16	0.569	0.968	0.924	0.621		0.561	0.468	1.11	0.967	1.17	1.09
HCC-15	0.732	0.77	0.71	0.698	0.222	0.217	0.212	0.23	1.25	1.01	1.11	1.03	0.625	0.692	0.647	0.575	1.11	0.987	1.03	0.995
HCC-44	0.965	0.967	1.03	0.981	0.708	0.621	0.688	0.64					1.05	0.942	0.964	0.99	0.8	0.878	0.836	0.856
HCC-78	0.425	0.425	0.452	0.471	0.895		0.875	0.919	0.558	0.526	0.515	0.475	0.77		0.793	0.646	0.384	0.521	0.667	0.516
HCC-366	0.426	0.374	0.394	0.322	0.175	0.146	0.137	0.161	0.986	0.889	0.931	0.958	0.348	0.357	0.336	0.314	1.26	1.01	1.09	0.978

Cell Line	relative viability (JZL-184 + Palbociclib; first compound 0.04 µM)	relative viability (JZL-184 + Palbociclib; first compound 0.4 µM)	relative viability (JZL-184 + Palbociclib; first compound 1.265 µM)	relative viability (JZL-184 + Palbociclib; first compound 4 µM)	relative viability (JZL-184 + Pemetrexed; first compound 0.04 µM)	relative viability (JZL-184 + Pemetrexed; first compound 0.4 µM)	relative viability (JZL-184 + Pemetrexed; first compound 1.265 µM)	relative viability (JZL-184 + Pemetrexed; first compound 4 µM)	relative viability (JZL-184 + Foretinib; first compound 0.04 µM)	relative viability (JZL-184 + Foretinib; first compound 0.4 µM)	relative viability (JZL-184 + Foretinib; first compound 1.265 µM)	relative viability (JZL-184 + Foretinib; first compound 4 µM)	relative viability (JZL-184 + Decitabine; first compound 0.04 µM)	relative viability (JZL-184 + Decitabine; first compound 0.4 µM)	relative viability (JZL-184 + Decitabine; first compound 1.265 µM)	relative viability (JZL-184 + Decitabine; first compound 4 µM)	relative viability (JZL-184 + Bortezomib; first compound 0.04 µM)	relative viability (JZL-184 + Bortezomib; first compound 0.4 µM)	relative viability (JZL-184 + Bortezomib; first compound 1.265 µM)	relative viability (JZL-184 + Bortezomib; first compound 4 µM)
HCC-827	0.52	0.441	0.555	0.48	0.222	0.199	0.178	0.261	1.12	0.962	1.01	0.943	0.297	0.191	0.306	0.312	1.11	0.911	1.07	1.02
IA-LM									1.47	1.08	1.22	1.11					1.04	0.786	0.844	0.866
LK-2	0.817	0.514	0.795	0.887	0.235	0.2	0.183	0.277	1.27	1.11	1.31	1.5	0.254	0.198	0.273	0.304				
NCI-H358	0.138	0.142	0.137	0.129	0.195	0.162	0.181	0.163	0.758	0.722	0.72	0.649	0.241	0.211	0.237	0.21				
NCI-H522	1.23	0.936	1.13	0.903	1.23	0.981	1.02	1.16					0.689	0.615	0.685	0.611				
NCI-H596					0.543	0.411	0.452	0.48	0.879	0.719	0.968	0.801	1.1	0.96	1.01	0.984	1.21	0.948	1.17	1.08
NCI-H727	0.64	0.708	0.63	0.738					0.981	0.744	0.932	0.845	0.928	0.663	0.626	1.13	0.988	0.689	0.797	0.802
NCI-H1395	0.661	0.598	0.63	0.573	0.785	0.948	0.985	0.75	0.918	0.972	0.965	0.856	0.756	0.656	0.792	0.64				
NCI-H1563					0.851	0.776	0.821	0.739	0.937	0.888	0.897	0.959					0.79	0.797	0.86	0.933
NCI-H1703									0.356	0.317	0.402	0.295					0.349	0.213	0.359	0.467
NCI-H1792	0.677	0.687	0.659	0.656	1.05	0.699	1.1	0.812					0.668	0.503	0.529	0.597	1.13	0.405	0.954	0.952
NCI-H1793	0.271	0.285	0.281	0.312	0.936	0.801	0.982	0.735	0.63	0.84	0.865	0.583	0.533	0.441	0.507	0.462				
NCI-H1944	0.338	0.289	0.347	0.328	0.587	0.53	0.72	0.567	0.893	0.906	0.938	0.886	0.451	0.416	0.407	0.391				
NCI-H2170	0.439	0.37	0.407	0.366	0.267	0.258	0.252	0.286	1.05	0.941	0.977	0.966	0.497	0.475	0.473	0.476				
NCI-H2228	0.947	0.511	0.842	0.768	0.397	0.336	0.38	0.337	1.07	0.701	0.992	0.803					1.1	1.01	0.995	0.835
NCI-H2342	0.563	0.535	0.522	0.529	0.654	0.732	0.78	0.778	1.04	1.11	1.26	1.12	0.736	0.691	0.716	0.817				
SK-MES-1	0.372	0.311	0.316	0.297	0.9	0.872	1	0.907	1.01	1.02	1.02	0.86	0.448	0.381	0.405	0.403				
SW 900	0.548	0.513	0.558	0.521	0.496	0.482	0.537	0.491	1.1	0.858	0.824	0.799	0.465	0.416	0.465	0.451				
